Test results: patent publication US20070128217A1 (priority 2003, published 2007)

Assays:
[1] = tested on: control sera (pooled serum of ten healthy LUMC hospital workers; commercial negative donor pooled serum from the Dutch bloodbank); type: binding, human; set-up: Binding of Control serum LUMC to linear peptides / Binding of Control serum Blood-bank to linear peptides / Binding of Control serum LUMC to looped peptides / Binding of Control Serum Blood-Bank to Looped peptides / Binding of Control serum LUMC to linear peptides of the protein M of SARS-CoV Urbani / Binding of Control serum Blood-bank to linear peptides of the protein M of SARS-CoV Urbani / Binding of Control serum LUMC to looped peptides of the protein M of SARS-CoV Urbani / Binding of Control Serum Blood-Bank to Looped peptides of the protein M of SARS-CoV Urbani: unit not given here
[2] = tested on: antibodies in sera from SARS patients (sera 1a, 1b, 2, 6, 37, 62, London, SARS-yellow, SARS-green); type: binding, human; set-up: Binding of serum 6 to linear peptides of protein X1 of SARS-CoV Urbani / Binding of serum 37 to linear peptides of protein X1 of SARS-CoV Urbani / Binding of serum 6 to looped/cyclic peptide (PEPSCAN-ELISA) / Binding of serum 37 to looped/cyclic peptide (PEPSCAN-ELISA) / Binding of serum 37 to looped/cyclic peptides of protein X1 of SARS-CoV Urbani / Binding of serum 6 to linear peptides of protein X2 / Binding of serum 37 to linear peptides of protein X2 / Binding of serum 37 to looped/cyclic peptides of protein X2 of SARS-CoV Urbani / Binding of serum 6 to linear peptides of protein M of SARS-CoV Urbani / Binding of serum 37 to linear peptides of protein M of SARS-CoV Urbani / Binding of serum 6 to looped/cyclic peptides of protein M of SARS-CoV Urbani / Binding of serum 37 to looped/cyclic peptides of protein M of SARS-CoV Urbani / Binding of serum 6 to linear peptides of protein X3 of SARS-CoV Urbani / Binding of serum 37 to linear peptides of protein X3 of SARS-CoV Urbani / Binding of serum 37 to looped/cyclic peptides of protein X3 of SARS-CoV Urbani / Binding of serum 6 to linear peptides of protein X4 of SARS-CoV Urbani / Binding of serum 37 to linear peptides of protein X4 of SARS-CoV Urbani / Binding of serum 37 to looped/cyclic peptides of protein X4 of SARS-CoV Urbani / Binding of serum 6 to linear peptides of protein X5 of SARS-CoV Urbani / Binding of serum 37 to linear peptides of protein X5 of SARS-CoV Urbani / Binding of serum 37 to looped/cyclic peptides of protein X5 of SARS-CoV Urbani / Binding of serum 6 to linear peptides of protein N of SARS-CoV Urbani / Binding of serum 37 to linear peptides of protein N of SARS-CoV Urbani / Binding of serum 6 to linear peptide (PEPSCAN-ELISA) / Binding of serum 1a to looped/cyclic peptides of protein N of SARS-CoV Urbani / Binding of serum 1b to looped/cyclic peptides of protein N of SARS-CoV Urbani / Binding of serum 2 to looped/cyclic peptides of protein N of SARS-CoV Urbani / Binding of serum 6 to looped/cyclic peptides of protein N of SARS-CoV Urbani / Binding of serum 37 to looped/cyclic peptides of protein N of SARS-CoV Urbani / Binding of serum 62 to looped/cyclic peptides of protein N of SARS-CoV Urbani / Binding of serum London to looped/cyclic peptides of protein N of SARS-CoV Urbani / Binding of serum SARS-green to looped/cyclic peptides of protein N of SARS-CoV Urbani: unit not given here
[3] = tested on: rabbit serum obtained by immunizing a rabbit with the SARS-CoV strain Frankfurt 1; type: binding; set-up: Binding of a rabbit serum to linear peptides / Binding of a rabbit serum to looped peptides / Rabbit serum linear peptides / Rabbit serum looped peptides / Binding of a rabbit serum to linear peptides of protein N of SARS-CoV Urbani (Rabbit serum linear peptides) / Binding of a rabbit serum to looped/cyclic peptides of protein N of SARS-CoV Urbani (Rabbit serum looped peptides): unit not given here

Sequence: LKTHRMCKYTQSTAL
- Binding of Control Serum Blood-Bank to Looped peptides [1]: 0.7
- Binding of Control serum Blood-bank to linear peptides [1]: 0.7
- Binding of Control serum LUMC to linear peptides [1]: 0.6
- Binding of Control serum LUMC to looped peptides [1]: 0.6
- Binding of serum 1a to linear peptides of protein X2 [2]: 0.8
- Binding of serum 1a to looped/cyclic peptides of protein X2 of SARS-CoV Urbani [2]: 0.6
- Binding of serum 1b to linear peptides of protein X2 [2]: 0.6
- Binding of serum 1b to looped/cyclic peptides of protein X2 of SARS-CoV Urbani [2]: 0.6
- Binding of serum 2 to linear peptides of protein X2 [2]: 0.5
- Binding of serum 2 to looped/cyclic peptides of protein X2 of SARS-CoV Urbani [2]: 0.4
- Binding of serum 6 to linear peptides of protein X2 [2]: 0.6
- Binding of serum 6 to looped/cyclic peptides of protein X2 of SARS-CoV Urbani [2]: 0.5
- Binding of serum 37 to linear peptides of protein X2 [2]: 0.7
- Binding of serum 37 to looped/cyclic peptides of protein X2 of SARS-CoV Urbani [2]: 0.5
- Binding of serum 62 to linear peptides of protein X2 [2]: 0.7
- Binding of serum 62 to looped/cyclic peptides of protein X2 of SARS-CoV Urbani [2]: 0.6
- Binding of serum London to linear peptides of protein X2 [2]: 0.5
- Binding of serum London to looped/cyclic peptides of protein X2 of SARS-CoV Urbani [2]: 0.2
- Binding of serum SARS-green to linear peptides of protein X2 [2]: 0.5
- Binding of serum SARS-green to looped/cyclic peptides of protein X2 of SARS-CoV Urbani [2]: 0.3
- Binding of serum SARS-yellow to linear peptides of protein X2 [2]: 0.8
- Binding of serum SARS-yellow to looped/cyclic peptides of protein X2 of SARS-CoV Urbani [2]: 0.6
- Binding of a rabbit serum to linear peptides [3]: 0.4
- Binding of a rabbit serum to looped peptides [3]: 0.5

Sequence: LKVTAFQHQNSKKTT
- Binding of Control Serum Blood-Bank to Looped peptides [1]: 0.3
- Binding of Control serum Blood-bank to linear peptides [1]: 0.4
- Binding of Control serum LUMC to linear peptides [1]: 0.8
- Binding of Control serum LUMC to looped peptides [1]: 0.4
- Binding of serum 1a to linear peptides of protein X2 [2]: 0.5
- Binding of serum 1a to looped/cyclic peptides of protein X2 of SARS-CoV Urbani [2]: 0.3
- Binding of serum 1b to linear peptides of protein X2 [2]: 0.4
- Binding of serum 1b to looped/cyclic peptides of protein X2 of SARS-CoV Urbani [2]: 0.2
- Binding of serum 2 to linear peptides of protein X2 [2]: 0.3
- Binding of serum 2 to looped/cyclic peptides of protein X2 of SARS-CoV Urbani [2]: 0.1
- Binding of serum 6 to linear peptides of protein X2 [2]: 0.3
- Binding of serum 6 to looped/cyclic peptides of protein X2 of SARS-CoV Urbani [2]: 0.1
- Binding of serum 37 to linear peptides of protein X2 [2]: 0.5
- Binding of serum 37 to looped/cyclic peptides of protein X2 of SARS-CoV Urbani [2]: 0.2
- Binding of serum 62 to linear peptides of protein X2 [2]: 0.3
- Binding of serum 62 to looped/cyclic peptides of protein X2 of SARS-CoV Urbani [2]: 0.4
- Binding of serum London to linear peptides of protein X2 [2]: 0.2
- Binding of serum London to looped/cyclic peptides of protein X2 of SARS-CoV Urbani [2]: 0.1
- Binding of serum SARS-green to linear peptides of protein X2 [2]: 0.2
- Binding of serum SARS-green to looped/cyclic peptides of protein X2 of SARS-CoV Urbani [2]: 0.1
- Binding of serum SARS-yellow to linear peptides of protein X2 [2]: 0.7
- Binding of serum SARS-yellow to looped/cyclic peptides of protein X2 of SARS-CoV Urbani [2]: 0.2
- Binding of a rabbit serum to linear peptides [3]: 0.6
- Binding of a rabbit serum to looped peptides [3]: 0.3

Sequence: LLEQWNLVIGFLFLA
- Binding of Control Serum Blood-Bank to Looped peptides of the protein M of SARS-CoV Urbani [1]: 0.2
- Binding of Control serum Blood-bank to linear peptides of the protein M of SARS-CoV Urbani [1]: 0.5
- Binding of Control serum LUMC to linear peptides of the protein M of SARS-CoV Urbani [1]: 0.4
- Binding of Control serum LUMC to looped peptides of the protein M of SARS-CoV Urbani [1]: 0.5
- Binding of serum 1a to linear peptides of protein M of SARS-CoV Urbani [2]: 0.7
- Binding of serum 1a to looped/cyclic peptides of protein M of SARS-CoV Urbani [2]: 0.5
- Binding of serum 1b to linear peptides of protein M of SARS-CoV Urbani [2]: 0.6
- Binding of serum 1b to looped/cyclic peptides of protein M of SARS-CoV Urbani [2]: 0.2
- Binding of serum 2 to linear peptides of protein M of SARS-CoV Urbani [2]: 0.4
- Binding of serum 2 to looped/cyclic peptides of protein M of SARS-CoV Urbani [2]: 0.4
- Binding of serum 6 to linear peptides of protein M of SARS-CoV Urbani [2]: 0.2
- Binding of serum 6 to looped/cyclic peptides of protein M of SARS-CoV Urbani [2]: 0.4
- Binding of serum 37 to linear peptides of protein M of SARS-CoV Urbani [2]: 0.4
- Binding of serum 37 to looped/cyclic peptides of protein M of SARS-CoV Urbani [2]: 0.4
- Binding of serum 62 to linear peptides of protein M of SARS-CoV Urbani [2]: 0.4
- Binding of serum 62 to looped/cyclic peptides of protein M of SARS-CoV Urbani [2]: 0.4
- Binding of serum London to linear peptides of protein M of SARS-CoV Urbani [2]: 0.3
- Binding of serum London to looped/cyclic peptides of protein M of SARS-CoV Urbani [2]: 0.2
- Binding of serum SARS-green to linear peptides of protein M of SARS-CoV Urbani [2]: 0.3
- Binding of serum SARS-green to looped/cyclic peptides of protein M of SARS-CoV Urbani [2]: 0.2
- Binding of serum SARS-yellow to linear peptides of protein M of SARS-CoV Urbani [2]: 0.2
- Binding of serum SARS-yellow to looped/cyclic peptides of protein M of SARS-CoV Urbani [2]: 0.4
- Rabbit serum linear peptides [3]: 0.6
- Rabbit serum looped peptides [3]: 0.0
